Measured values taken from patent publication US20100041089A1, “IMPROVED METHOD FOR DETECTING CHEMICAL […]” (priority 2006, published 2010).

Tested on: yeast genes (expressed mRNA)
Assay: DNA chip measurement of expressed mRNA of yeast genes after culture with a toxic chemical substance
Format: cell-based, Saccharomyces cerevisiae S288C
Conditions: for The level of expressed mRNA in the presence of chemical substance/The level of expressed mRNA in the absence of chemical substance: cultured two hours with substance; for level of expressed mRNA in the presence of chemical substance / level in the absence of chemical substance: cultured two hours with the chemical substance
Procedure, shortened: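 Fluorescence ratio, treated over untreated, read by chip scanner; ratio of two or more counted significant. Cells: S288C yeast, YPD, 25° C, chemical added at log phase for 2 h at growth-inhibiting, sublethal level. Cy3/Cy5-labeled cDNA from oligo-dT-purified mRNA.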

Substance: Manganese ethylenebis(dithiocarbamate) [(8)]
- The level of expressed mRNA in the presence of chemical substance/The level of expressed mRNA in the absence of chemical substance (yeast gene YNL044W): 1.8
- level of expressed mRNA in the presence of chemical substance / level in the absence of chemical substance (yeast gene YNL063W): 1.5
- The level of expressed mRNA in the presence of chemical substance/The level of expressed mRNA in the absence of chemical substance (yeast gene YNL074C): 0.6
- The level of expressed mRNA in the presence of chemical substance/The level of expressed mRNA in the absence of chemical substance (yeast gene YNL092W): 0.9
- The level of expressed mRNA in the presence of chemical substance/The level of expressed mRNA in the absence of chemical substance (yeast gene YNL115C): 0.8
- The level of expressed mRNA in the presence of chemical substance/The level of expressed mRNA in the absence of chemical substance (yeast gene YNL156C): 1.2
- level of expressed mRNA in the presence of chemical substance / level in the absence of chemical substance (yeast gene YNL176C): 0.9
- level of expressed mRNA in the presence of chemical substance / level in the absence of chemical substance (yeast gene YNL194C): 0.9
- level of expressed mRNA in the presence of chemical substance / level in the absence of chemical substance (yeast gene YNL200C): 0.7
- The level of expressed mRNA in the presence of chemical substance/The level of expressed mRNA in the absence of chemical substance (yeast gene YNL234W): 1.3
- level of expressed mRNA in the presence of chemical substance / level in the absence of chemical substance (yeast gene YNL253W): 1.1
- level of expressed mRNA in the presence of chemical substance / level in the absence of chemical substance (yeast gene YNL276C): 0.7
- The level of expressed mRNA in the presence of chemical substance/The level of expressed mRNA in the absence of chemical substance (yeast gene YNL281W): 1.2
- The level of expressed mRNA in the presence of chemical substance/The level of expressed mRNA in the absence of chemical substance (yeast gene YNL305C): 0.7
- level of expressed mRNA in the presence of chemical substance / level in the absence of chemical substance (yeast gene YNR051C): 0.7
- The level of expressed mRNA in the presence of chemical substance/The level of expressed mRNA in the absence of chemical substance (yeast gene YNR068C): 1.1
- level of expressed mRNA in the presence of chemical substance / level in the absence of chemical substance (yeast gene YOL026C): 1.1
- The level of expressed mRNA in the presence of chemical substance/The level of expressed mRNA in the absence of chemical substance (yeast gene YOL032W): 1.5
- The level of expressed mRNA in the presence of chemical substance/The level of expressed mRNA in the absence of chemical substance (yeast gene YOL036W): 0.8
- The level of expressed mRNA in the presence of chemical substance/The level of expressed mRNA in the absence of chemical substance (yeast gene YOL047C): 1.1
- The level of expressed mRNA in the presence of chemical substance/The level of expressed mRNA in the absence of chemical substance (yeast gene YOL071W): 1.6
- The level of expressed mRNA in the presence of chemical substance/The level of expressed mRNA in the absence of chemical substance (yeast gene YOL082W): 1.1
- The level of expressed mRNA in the presence of chemical substance/The level of expressed mRNA in the absence of chemical substance (yeast gene YOL083W): 1.3
- The level of expressed mRNA in the presence of chemical substance/The level of expressed mRNA in the absence of chemical substance (yeast gene YOL117W): 1.1
- The level of expressed mRNA in the presence of chemical substance/The level of expressed mRNA in the absence of chemical substance (yeast gene YOL131W): 1.1
- The level of expressed mRNA in the presence of chemical substance/The level of expressed mRNA in the absence of chemical substance (yeast gene YOL150C): 3.7
- The level of expressed mRNA in the presence of chemical substance/The level of expressed mRNA in the absence of chemical substance (yeast gene YOL162W): 1.6
- The level of expressed mRNA in the presence of chemical substance/The level of expressed mRNA in the absence of chemical substance (yeast gene YOR019W): 1.1
- level of expressed mRNA in the presence of chemical substance / level in the absence of chemical substance (yeast gene YOR022C): 1.2
- level of expressed mRNA in the presence of chemical substance / level in the absence of chemical substance (yeast gene YOR087W): 0.8
- level of expressed mRNA in the presence of chemical substance / level in the absence of chemical substance (yeast gene YOR138C): 0.8
- The level of expressed mRNA in the presence of chemical substance/The level of expressed mRNA in the absence of chemical substance (yeast gene YOR197W): 0.9
- level of expressed mRNA in the presence of chemical substance / level in the absence of chemical substance (yeast gene YOR253W): 1.2
- level of expressed mRNA in the presence of chemical substance / level in the absence of chemical substance (yeast gene YOR267C): 0.7
- level of expressed mRNA in the presence of chemical substance / level in the absence of chemical substance (yeast gene YOR325W): 0.9
- level of expressed mRNA in the presence of chemical substance / level in the absence of chemical substance (yeast gene YPL005W): 1.0
- The level of expressed mRNA in the presence of chemical substance/The level of expressed mRNA in the absence of chemical substance (yeast gene YPL087W): 1.0
- level of expressed mRNA in the presence of chemical substance / level in the absence of chemical substance (yeast gene YPL150W): 1.1
- level of expressed mRNA in the presence of chemical substance / level in the absence of chemical substance (yeast gene YPL152W): 1.1
- level of expressed mRNA in the presence of chemical substance / level in the absence of chemical substance (yeast gene YPL168W): 1.2
- level of expressed mRNA in the presence of chemical substance / level in the absence of chemical substance (yeast gene YPL180W): 1.0
- level of expressed mRNA in the presence of chemical substance / level in the absence of chemical substance (yeast gene YPL188W): 1.6
- The level of expressed mRNA in the presence of chemical substance/The level of expressed mRNA in the absence of chemical substance (yeast gene YPL196W): 1.2
- The level of expressed mRNA in the presence of chemical substance/The level of expressed mRNA in the absence of chemical substance (yeast gene YPL206C): 1.0
- level of expressed mRNA in the presence of chemical substance / level in the absence of chemical substance (yeast gene YPL221W): 0.9
- The level of expressed mRNA in the presence of chemical substance/The level of expressed mRNA in the absence of chemical substance (yeast gene YPL222W): 0.7
- level of expressed mRNA in the presence of chemical substance / level in the absence of chemical substance (yeast gene YPL225W): 1.7
- The level of expressed mRNA in the presence of chemical substance/The level of expressed mRNA in the absence of chemical substance (yeast gene YPR023C): 0.9
- level of expressed mRNA in the presence of chemical substance / level in the absence of chemical substance (yeast gene YPR049C): 1.1
- level of expressed mRNA in the presence of chemical substance / level in the absence of chemical substance (yeast gene YPR146C): 0.8
- level of expressed mRNA in the presence of chemical substance / level in the absence of chemical substance (yeast gene YPR148C): 1.5
- The level of expressed mRNA in the presence of chemical substance/The level of expressed mRNA in the absence of chemical substance (yeast gene YPR151C): 1.4
- level of expressed mRNA in the presence of chemical substance / level in the absence of chemical substance (yeast gene YPR172W): 1.0
